According to PubChem BioAssay (NCI):
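Five concentrations, 48 hours, 96-well plates. GI50 = concentration required for 50% inhibition of growth. At the TGI there is no net growth.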

Assays:
Test in all cases: NCI tumour cell line growth inhibition, 48 h
SW-620 colon = tested on: SW-620 colon
NCI-H226 lung = tested on: NCI-H226 lung
MOLT-4 leukemia = tested on: MOLT-4 leukemia
OVCAR-4 ovarian = tested on: OVCAR-4 ovarian
UACC-257 melanoma = tested on: UACC-257 melanoma
HL-60(TB) leukemia = tested on: HL-60(TB) leukemia
T-47D breast = tested on: T-47D breast
OVCAR-3 ovarian = tested on: OVCAR-3 ovarian
SF-295 CNS = tested on: SF-295 CNS
U251 CNS = tested on: U251 CNS
HCT-116 colon = tested on: HCT-116 colon
786-0 renal = tested on: 786-0 renal
NCI/ADR-RES ovarian = tested on: NCI/ADR-RES ovarian
HCC-2998 colon = tested on: HCC-2998 colon
NCI-H23 lung = tested on: NCI-H23 lung
SK-MEL-28 melanoma = tested on: SK-MEL-28 melanoma
SNB-19 CNS = tested on: SNB-19 CNS
IGROV1 ovarian = tested on: IGROV1 ovarian
MALME-3M melanoma = tested on: MALME-3M melanoma
SF-268 CNS = tested on: SF-268 CNS
OVCAR-8 ovarian = tested on: OVCAR-8 ovarian
RXF 393 renal = tested on: RXF 393 renal
SK-OV-3 ovarian = tested on: SK-OV-3 ovarian
ACHN renal = tested on: ACHN renal
SK-MEL-2 melanoma = tested on: SK-MEL-2 melanoma
MDA-MB-231 breast = tested on: MDA-MB-231 breast
NCI-H460 lung = tested on: NCI-H460 lung
HOP-62 NSCLC = tested on: HOP-62 NSCLC
OVCAR-5 ovarian = tested on: OVCAR-5 ovarian
HOP-92 NSCLC = tested on: HOP-92 NSCLC
DU-145 prostate = tested on: DU-145 prostate
CCRF-CEM leukemia = tested on: CCRF-CEM leukemia
HT29 colon = tested on: HT29 colon
BT-549 breast = tested on: BT-549 breast
MDA-MB-435 = tested on: MDA-MB-435
PC-3 prostate = tested on: PC-3 prostate
SF-539 CNS = tested on: SF-539 CNS
UACC-62 melanoma = tested on: UACC-62 melanoma
TK-10 renal = tested on: TK-10 renal
A549 NSCLC = tested on: A549 NSCLC
M14 melanoma = tested on: M14 melanoma
SNB-75 CNS = tested on: SNB-75 CNS
SK-MEL-5 melanoma = tested on: SK-MEL-5 melanoma
A498 renal = tested on: A498 renal
COLO 205 colon = tested on: COLO 205 colon
MCF7 breast = tested on: MCF7 breast
RPMI-8226 leukemia = tested on: RPMI-8226 leukemia
NCI-H522 lung = tested on: NCI-H522 lung
UO-31 renal = tested on: UO-31 renal
SN12C renal = tested on: SN12C renal
SR leukemia = tested on: SR leukemia
HS 578T breast = tested on: HS 578T breast
EKVX NSCLC = tested on: EKVX NSCLC
KM12 colon = tested on: KM12 colon
K-562 leukemia = tested on: K-562 leukemia
LOX IMVI melanoma = tested on: LOX IMVI melanoma
HCT-15 colon = tested on: HCT-15 colon
CAKI-1 renal = tested on: CAKI-1 renal

Compound: Nc1nc2ccc(-c3nc4ccc5[nH]ncc5c4c4c3CCC4)cc2s1
- GI50 (SW-620 colon): 186 nM
- TGI (SW-620 colon): 7050 nM
- GI50 (NCI-H226 lung): 1100 nM
- TGI (NCI-H226 lung): 10100 nM
- GI50 (MOLT-4 leukemia): 294 nM
- TGI (MOLT-4 leukemia): 10700 nM
- GI50 (OVCAR-4 ovarian): 835 nM
- TGI (OVCAR-4 ovarian): 6250 nM
- GI50 (UACC-257 melanoma): 731 nM
- TGI (UACC-257 melanoma): 5580 nM
- GI50 (HL-60(TB) leukemia): 168 nM
- TGI (HL-60(TB) leukemia): 7930 nM
- GI50 (T-47D breast): 408 nM
- TGI (T-47D breast): 15300 nM
- GI50 (OVCAR-3 ovarian): 187 nM
- TGI (OVCAR-3 ovarian): 10800 nM
- GI50 (SF-295 CNS): 234 nM
- TGI (SF-295 CNS): 7950 nM
- GI50 (U251 CNS): 241 nM
- TGI (U251 CNS): 12700 nM
- GI50 (HCT-116 colon): 244 nM
- TGI (HCT-116 colon): 6680 nM
- GI50 (786-0 renal): 343 nM
- TGI (786-0 renal): 7790 nM
- GI50 (NCI/ADR-RES ovarian): 302 nM
- TGI (NCI/ADR-RES ovarian): 18800 nM
- GI50 (HCC-2998 colon): 1470 nM
- TGI (HCC-2998 colon): 9110 nM
- GI50 (NCI-H23 lung): 546 nM
- TGI (NCI-H23 lung): 8250 nM
- GI50 (SK-MEL-28 melanoma): 638 nM
- TGI (SK-MEL-28 melanoma): 7890 nM
- GI50 (SNB-19 CNS): 318 nM
- TGI (SNB-19 CNS): 11400 nM
- GI50 (IGROV1 ovarian): 288 nM
- TGI (IGROV1 ovarian): 8660 nM
- GI50 (MALME-3M melanoma): 202 nM
- TGI (MALME-3M melanoma): 1630 nM
- GI50 (SF-268 CNS): 478 nM
- TGI (SF-268 CNS): 20200 nM
- GI50 (OVCAR-8 ovarian): 978 nM
- TGI (OVCAR-8 ovarian): 20700 nM
- GI50 (RXF 393 renal): 238 nM
- TGI (RXF 393 renal): 1770 nM
- GI50 (SK-OV-3 ovarian): 473 nM
- TGI (SK-OV-3 ovarian): 2520 nM
- GI50 (ACHN renal): 321 nM
- TGI (ACHN renal): 6580 nM
- GI50 (SK-MEL-2 melanoma): 567 nM
- TGI (SK-MEL-2 melanoma): 8080 nM
- GI50 (MDA-MB-231 breast): 511 nM
- TGI (MDA-MB-231 breast): 11500 nM
- GI50 (NCI-H460 lung): 208 nM
- TGI (NCI-H460 lung): 5120 nM
- GI50 (HOP-62 NSCLC): 415 nM
- TGI (HOP-62 NSCLC): 13600 nM
- GI50 (OVCAR-5 ovarian): 2640 nM
- TGI (OVCAR-5 ovarian): 11900 nM
- GI50 (HOP-92 NSCLC): 660 nM
- TGI (HOP-92 NSCLC): 6870 nM
- GI50 (DU-145 prostate): 787 nM
- TGI (DU-145 prostate): 5620 nM
- GI50 (CCRF-CEM leukemia): 225 nM
- TGI (CCRF-CEM leukemia): 50000 nM
- GI50 (HT29 colon): 191 nM
- TGI (HT29 colon): 19800 nM
- GI50 (BT-549 breast): 365 nM
- TGI (BT-549 breast): 10200 nM
- GI50 (MDA-MB-435): 67.3 nM
- TGI (MDA-MB-435): 259 nM
- GI50 (PC-3 prostate): 308 nM
- TGI (PC-3 prostate): 14000 nM
- GI50 (SF-539 CNS): 190 nM
- TGI (SF-539 CNS): 4150 nM
- GI50 (UACC-62 melanoma): 149 nM
- TGI (UACC-62 melanoma): 630 nM
- GI50 (TK-10 renal): 1110 nM
- TGI (TK-10 renal): 9730 nM
- GI50 (A549 NSCLC): 440 nM
- TGI (A549 NSCLC): 23900 nM
- GI50 (M14 melanoma): 172 nM
- TGI (M14 melanoma): 8860 nM
- GI50 (SNB-75 CNS): 115 nM
- TGI (SNB-75 CNS): 550 nM
- GI50 (SK-MEL-5 melanoma): 238 nM
- TGI (SK-MEL-5 melanoma): 1680 nM
- GI50 (A498 renal): 108 nM
- TGI (A498 renal): 624 nM
- GI50 (COLO 205 colon): 306 nM
- TGI (COLO 205 colon): 7140 nM
- GI50 (MCF7 breast): 165 nM
- TGI (MCF7 breast): 7360 nM
- GI50 (RPMI-8226 leukemia): 472 nM
- TGI (RPMI-8226 leukemia): 10500 nM
- GI50 (NCI-H522 lung): 253 nM
- TGI (NCI-H522 lung): 2520 nM
- GI50 (UO-31 renal): 741 nM
- TGI (UO-31 renal): 3580 nM
- GI50 (SN12C renal): 383 nM
- TGI (SN12C renal): 8790 nM
- GI50 (SR leukemia): 155 nM
- TGI (SR leukemia): 22400 nM
- GI50 (HS 578T breast): 189 nM
- TGI (HS 578T breast): 3130 nM
- GI50 (EKVX NSCLC): 916 nM
- TGI (EKVX NSCLC): 8050 nM
- GI50 (KM12 colon): 205 nM
- TGI (KM12 colon): 9010 nM
- GI50 (K-562 leukemia): 115 nM
- TGI (K-562 leukemia): 33200 nM
- GI50 (LOX IMVI melanoma): 281 nM
- TGI (LOX IMVI melanoma): 8900 nM
- GI50 (HCT-15 colon): 193 nM
- TGI (HCT-15 colon): 7660 nM
- GI50 (CAKI-1 renal): 315 nM
- TGI (CAKI-1 renal): 5510 nM
